The experiment has as its target T1, TPM3-TRKA fusion protein (Homo sapiens, UniProt P04629).
T1 construct: The resulted chimeric proteins always retain the kinase domain of TRK proteins; TPM3 (fusion partner, N-terminal part of tropomyosin alpha-3, P06753); endogenous in cells; host or cells: KM12 colon cancer cells; the other entry of the earlier key: TPM3 (P06753, Tropomyosin alpha-3 chain)
The experiment in a line: TPM3-TRKA fusion protein levels in KM12 cells (Western blot). Type of experiment: cell-based. The following applies: for percent degradation of TPM3-TRKA protein at 0.01 µM: 16 h, TPM3-TRKA degradation in KM12 cells at 10 nM compound, category of percentage degradation, read-out: Degradation (at 10 nM). The protocol:
KM12 cells were treated with DMSO or indicated compounds at 100 nM for 16 hours.
KM12 cells were treated with DMSO or indicated compounds at 0. 1 nM, 1 nM or 10 nM for 16 hours.
KM12 cells were treated with DMSO or indicated compounds at various concentrations for 16 hours.
KM12 cells were treated with DMSO or indicated compounds at various concentrations for 4 hours.
KM12 cells (a cancer model comprising a colon cancer cell line) were treated with DMSO or indicated compounds at various concentrations for 4 hours.
KM12 cells were treated with heterobifunctional compounds or their corresponding control compounds at 10 nM or 100 nM for 16 hours.
KM12 cells were treated with heterobifunctional compounds or their corresponding control compounds at 0.4-30 nM for 8-16 hours. […] Cells were authenticated using the short tandem repeat (STR) assays. […] Stable cell lines were established by lentivirus transduction, selected and maintained in medium containing 1 μg/mL puromycin (Beyotime Biotechnology).
Cultured cells were washed with cold PBS once and lysed in cold RIPA buffer supplemented with protease inhibitors and phosphatase inhibitors (Beyotime Biotechnology). The solutions were then incubated at 4° C. for 30 minutes with gentle agitation to fully lyse cells. For tumor tissues, tumors were cut into small pieces, milled with cold RIPA buffer using a mechanical homogenizer and lysed for 1 hour at 4° C. Cell lysates were centrifuged at 13,000 rpm for 10 minutes at 4° C. and pellets were discarded. Total protein concentrations in the lysates were determined by BCA assays (Beyotime Biotechnology). Cell lysates were mixed with Laemmli loading buffer to 1× and heated at 99° C. for 5 min. Proteins were resolved on SDS-PAGE and visualized by chemiluminescence. Images were taken by a ChemiDoc MP Imaging system (Bio-Rad). Protein bands were quantitated using the software provided by Bio-Rad.

Each structure is given as a SMILES string.

Results on 15 molecules are retold here after US12410171B2, “Tropomyosin receptor kinase (TRK) degradation compounds and methods of use” (Cullgen (Shanghai), Inc., priority 2020, dated 2025).

T1 sequence (P04629 with tags, fused parts or gaps): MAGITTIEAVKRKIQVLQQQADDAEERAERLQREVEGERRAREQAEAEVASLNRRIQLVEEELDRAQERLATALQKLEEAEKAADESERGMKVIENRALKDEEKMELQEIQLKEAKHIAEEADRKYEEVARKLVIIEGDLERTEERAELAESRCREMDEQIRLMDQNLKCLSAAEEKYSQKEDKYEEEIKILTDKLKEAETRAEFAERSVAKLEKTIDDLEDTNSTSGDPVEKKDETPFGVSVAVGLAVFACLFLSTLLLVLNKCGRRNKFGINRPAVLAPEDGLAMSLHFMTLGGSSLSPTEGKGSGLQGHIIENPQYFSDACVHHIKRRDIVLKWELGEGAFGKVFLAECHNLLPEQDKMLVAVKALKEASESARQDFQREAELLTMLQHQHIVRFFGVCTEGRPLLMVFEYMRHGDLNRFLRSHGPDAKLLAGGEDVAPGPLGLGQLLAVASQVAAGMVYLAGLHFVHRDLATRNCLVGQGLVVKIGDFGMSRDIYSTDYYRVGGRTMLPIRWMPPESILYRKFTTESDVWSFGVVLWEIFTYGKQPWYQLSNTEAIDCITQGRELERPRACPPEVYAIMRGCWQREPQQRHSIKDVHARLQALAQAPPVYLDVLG

Turning to `O=C1CCC(N2C(=O)c3cccc(NCCCCCCC(=O)N4CCN(c5cccc(-c6cnc7ccc(N8CCC[C@@H]8c8cccc(F)c8)nn67)n5)CC4)c3C2=O)C(=O)N1` (stereo partly drawn) [CPD-009, 2-(2,6-Dioxopiperidin-3-yl)-4-((7-(4-(6-(6-((R)-2-(3-fluorophenyl)pyrrolidin-1-yl)imidazo[1,2-b]pyridazin-3-yl)pyridin-2-yl)piperazin-1-yl)-7-oxoheptyl)amino) isoindoline-1,3-dione], the percent degradation of TPM3-TRKA protein at 0.01 µM is 50 to 80%.

For `O=C1CCC(N2C(=O)c3cccc(NCCCC(=O)N4CCN(c5cccc(-c6cnc7ccc(N8CCC[C@@H]8c8cccc(F)c8)nn67)n5)CC4)c3C2=O)C(=O)N1` (stereo partly drawn) [CPD-013, 2-(2,6-Dioxopiperidin-3-yl)-4-((4-(4-(6-(6-((R)-2-(3-fluorophenyl)pyrrolidin-1-yl)imidazo[1,2-b]pyridazin-3-yl)pyridin-2-yl)piperazin-1-yl)-4-oxobutyl)amino) isoindoline-1,3-dione], the percent degradation of TPM3-TRKA protein at 0.01 µM was more than 80%. In the case of `O=C1CCC(N2C(=O)c3cccc(NCCCCC(=O)N4CCN(c5cccc(-c6cnc7ccc(N8CCC[C@@H]8c8cccc(F)c8)nn67)n5)CC4)c3C2=O)C(=O)N1` (stereo partly drawn) [CPD-014, 2-(2,6-Dioxopiperidin-3-yl)-4-((5-(4-(6-(6-((R)-2-(3-fluorophenyl)pyrrolidin-1-yl)imidazo[1,2-b]pyridazin-3-yl)pyridin-2-yl)piperazin-1-yl)-5-oxopentyl)amino) isoindoline-1,3-dione], the percent degradation of TPM3-TRKA protein at 0.01 µM was more than 80%.

For `O=C1CCC(N2C(=O)c3cccc(NCCCCCC(=O)N4CCN(c5cccc(-c6cnc7ccc(N8CCC[C@@H]8c8cccc(F)c8)nn67)n5)CC4)c3C2=O)C(=O)N1` (stereo partly drawn) [CPD-015, 2-(2,6-Dioxopiperidin-3-yl)-4-((6-(4-(6-(6-((R)-2-(3-fluorophenyl)pyrrolidin-1-yl)imidazo[1,2-b]pyridazin-3-yl)pyridin-2˜yl)piperazin-1-yl)-6-oxohexyl)amino) isoindoline-1,3-dione], the percent degradation of TPM3-TRKA protein at 0.01 µM was more than 80%. Regarding `Cc1ncsc1-c1ccc(CNC(=O)[C@@H]2C[C@@H](O)CN2C(=O)[C@@H](NC(=O)CCCCCCCCC(=O)N2CCN(c3cccc(-c4cnc5ccc(N6CCC[C@@H]6c6cccc(F)c6)nn45)n3)CC2)C(C)(C)C)cc1` [CPD-017, (28,4R)-1-((S)-2-(10-(4-(6-(6-((R)-2-(3-Fluorophenyl)pyrrolidin-1-yl)imidazo[1,2-b]pyridazin-3-yl)pyridin-2-yl)piperazin-1-yl)-10-oxodecanamido)-3,3-dimethylbutanoyl)-4-hydroxy-N-(4-(4-methylthiazol-S-yl)benzyl)pyrrolidine-2-carboxamide], the percent degradation of TPM3-TRKA protein at 0.01 µM was less than 50%. Turning to `O=C1CCC(N2C(=O)c3cccc(NCCOCCOCCOCCOCCC(=O)N4CCN(c5cccc(-c6cnc7ccc(N8CCC[C@@H]8c8cccc(F)c8)nn67)n5)CC4)c3C2=O)C(=O)N1` (stereo partly drawn) [CPD-021, 2-(2,6-Dioxopiperidin-3-yl)-4-((15-(4-(6-(6-((R)-2-(3-fluorophenyl)pyrrolidin-1-yl)imidazo[1,2-b]pyridazin-3-yl)pyridin-2-yl)piperazin-1-yl)-15-oxo-3,6,9,12-tetraoxapentadecyl)amino) isoindoline-1,3-dione], the percent degradation of TPM3-TRKA protein at 0.01 µM was more than 80%. With `Cc1ncsc1-c1ccc(CNC(=O)[C@@H]2C[C@@H](O)CN2C(=O)[C@@H](NC(=O)CCCCCCCCCC(=O)N2CCN(c3cccc(-c4cnc5ccc(N6CCC[C@@H]6c6cccc(F)c6)nn45)n3)CC2)C(C)(C)C)cc1` [CPD-022, (25,4R)-1-((S)-2-(11-(4-(6-(6-((R)-2-(3-Fluorophenyl)pyrrolidin-1-yl)imidazo[1,2-b]pyridazin-3-yl)pyridin-2-yl)piperazin-1-yl)-11-oxoundecanamido)-3,3-dimethylbutanoyl)-4-hydroxy-N-(4-(4-methylthiazol-5-yl)benzyl)pyrrolidine-2-carboxamide], the percent degradation of TPM3-TRKA protein at 0.01 µM lay within 50 to 80%. For `O=C1CCC(N2C(=O)c3cccc(NCC(=O)N4CCN(c5cccc(-c6cnc7ccc(N8CCC[C@@H]8c8cccc(F)c8)nn67)n5)CC4)c3C2=O)C(=O)N1` (stereo partly drawn) [CPD-023, 2-(2,6-Dioxopiperidin-3-yl)-4-((2˜ (4-(6-(6-((R)-2-(3-fluorophenyl)pyrrolidin-1-yl)imidazo[1,2-b]pyridazin-3-yl)pyridin-2-yl)piperazin-1-yl)-2-oxoethyl)amino) isoindoline-1,3-dione], the percent degradation of TPM3-TRKA protein at 0.01 µM was more than 80%. On to `O=C1CCC(N2C(=O)c3cccc(NCCCCCCCC(=O)N4CCN(c5cccc(-c6cnc7ccc(N8CCC[C@@H]8c8cccc(F)c8)nn67)n5)CC4)c3C2=O)C(=O)N1` (stereo partly drawn) [CPD-024, 2-(2,6-Dioxopiperidin-3-yl)-4-((8-(4-(6-(6-((R)-2-(3-fluorophenyl)pyrrolidin-1-yl)imidazo[1,2-b]pyridazin-3-yl)pyridin-2-yl)piperazin-1-yl)-8-oxooctyl)amino) isoindoline-1,3-dione], for which the percent degradation of TPM3-TRKA protein at 0.01 µM is more than 80%. Turning to `O=C1CCC(N2C(=O)c3cccc(NCCOCCOCCOCCOCCOCCC(=O)N4CCN(c5cccc(-c6cnc7ccc(N8CCC[C@@H]8c8cccc(F)c8)nn67)n5)CC4)c3C2=O)C(=O)N1` (stereo partly drawn) [CPD-025, 2-(2,6-Dioxopiperidin-3-yl)-4-((18-(4-(6-(6-((R)-2-(3-fluorophenyl)pyrrolidin-1-yl)imidazo[1,2-b]pyridazin-3-yl)pyridin-2-yl)piperazin-1-yl)-18-oxo-3,6,9,12,15-pentaoxaoctadecyl)amino) isoindoline-1,3-dione], the percent degradation of TPM3-TRKA protein at 0.01 µM was more than 80%. For `O=C1CCC(N2C(=O)c3cccc(NCCC(=O)N4CCN(c5cccc(-c6cnc7ccc(N8CCC[C@@H]8c8cccc(F)c8)nn67)n5)CC4)c3C2=O)C(=O)N1` (stereo partly drawn) [CPD-026, 2-(2,6-Dioxopiperidin-3-yl)-4-((3-(4-(6-(6-((R)-2-(3-fluorophenyl)pyrrolidin-1-yl)imidazo[1,2-b]pyridazin-3-yl)pyridin-2-yl)piperazin-1-yl)-3-oxopropyl)amino) isoindoline-1,3-dione], the percent degradation of TPM3-TRKA protein at 0.01 µM was 50 to 80%. As for `O=C1CCC(N2C(=O)c3cccc(NCCOCCC(=O)N4CCN(c5cccc(-c6cnc7ccc(N8CCC[C@@H]8c8cccc(F)c8)nn67)n5)CC4)c3C2=O)C(=O)N1` (stereo partly drawn) [CPD-027, 2-(2,6-Dioxopiperidin-3-yl)-4˜ ((2-(3-(4˜ (6-(6-((R)-2-(3-fluorophenyl)pyrrolidin-1-yl)imidazo[1,2-b]pyridazin-3-yl)pyridin-2-yl)piperazin-1-yl)-3-oxopropoxy)ethyl)amino) isoindoline-1,3-dione], the percent degradation of TPM3-TRKA protein at 0.01 µM was more than 80%. For the setting “KM12 cells, 100 nM, indicated incubation time, Western blot (FIG. 2)”, the TPM3-TRKA protein levels entry is “rapidly reduced TPM3-TRKA protein levels”. In the case of `O=C1CCC(N2C(=O)c3cccc(NCCOCCOCCC(=O)N4CCN(c5cccc(-c6cnc7ccc(N8CCC[C@@H]8c8cccc(F)c8)nn67)n5)CC4)c3C2=O)C(=O)N1` (stereo partly drawn) [CPD-028, 2-(2,6-Dioxopiperidin-3-yl)-4-((2-(2-(3-(4-(6-(6-((R)-2-(3-fluorophenyl)pyrrolidin-1-yl)imidazo[1,2-b]pyridazin-3-yl)pyridin-2-yl)piperazin-1-yl)-3-oxopropoxy)ethoxy)ethyl)amino) isoindoline-1,3-dione], the percent degradation of TPM3-TRKA protein at 0.01 µM was more than 80%. `Cc1ncsc1-c1ccc(CNC(=O)[C@@H]2C[C@@H](O)CN2C(=O)[C@@H](NC(=O)CCCCCCC(=O)N2CCN(c3cccc(-c4cnc5ccc(N6CCC[C@@H]6c6cccc(F)c6)nn45)n3)CC2)C(C)(C)C)cc1` [CPD-029, (25,4R)-1-((S)-2-(8-(4-(6-(6-((R)-2-(3-Fluorophenyl)pyrrolidin-1-yl)imidazo[1,2-b]pyridazin-3-yl)pyridin-2-yl)piperazin-1-yl)-8-oxooctanamido)-3,3-dimethylbutanoyl)-4-hydroxy-N-(4-(4-methylthiazol-5-yl)benzyl)pyrrolidine-2-carboxamide]: the percent degradation of TPM3-TRKA protein at 0.01 µM lay in the range of 50 to 80%. Same read-out and setting: to `O=C1CCC(N2C(=O)c3cccc(NCCOCCC(=O)N4CCN(c5ccc(C(=O)Nc6n[nH]c7ccc(Cc8cc(F)cc(F)c8)cc67)c(NC6CCOCC6)c5)CC4)c3C2=O)C(=O)N1` (stereo not shown) [CPD-030, N-(5-(3,5-Difluorobenzyl)-1H-indazol-3-yl)-4-(4-(3-(2-((2-(2,6-dioxopiperidin-3-yl)-1,3-dioxoisoindolin-4-yl)amino)ethoxy)propanoyl)piperazin-1-yl)-2-((tetrahydro-2H-pyran-4-yl)amino)benzamide] belongs more than 80%.
